Source: PMC2855214 (Biochemistry, 2010)

Target: T1, human UMP/CMP kinase (Homo sapiens, UniProt P30085)
T1 sequence (P30085 1-196): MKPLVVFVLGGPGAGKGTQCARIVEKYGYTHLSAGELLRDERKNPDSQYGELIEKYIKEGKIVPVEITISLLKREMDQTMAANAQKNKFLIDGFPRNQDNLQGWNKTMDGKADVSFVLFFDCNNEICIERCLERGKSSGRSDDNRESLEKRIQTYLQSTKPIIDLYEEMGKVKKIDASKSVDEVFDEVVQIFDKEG
Test: preparative enzymatic phosphorylation, product NMR
Format: biochemical
Conditions: ATP, Mg2+, pH 8, 37 °C

SMILES: Nc1ccn([C@@H]2O[C@H](COP(=O)(O)O)[C@@H](O)C2(F)F)c(=O)n1 [F2CMP, 2′-Deoxy-2′,2′-difluorocytidine-5′-monophosphate]
- preparative enzymatic phosphorylation, product NMR: F2CDP was generated enzymatically from F2CMP and ATP with human UMP/CMP kinase
